Test results taken from PMC9143004, “Antioxidant Properties and Aldehyde Reactivity of PD-L1 Targeted Aryl-Pyrazolone Anticancer Agents” (Molecules, 2022).
“And” between values parts separate entries of the source, which are not always exact repeats. Equal entries are not always repeated. Where two headings read alike, the source gives them in different places.

Columns and labels:
CTLL-2 cells = assay: Reactivation of proliferation of CTLL-2 cells; format: cell-based; details: read-out: Proliferation (IC50): capacity to reactivate proliferation of CTLL-2 cells
[1] = DMPO spin-trapping EPR assay under Fenton conditions in methanol; details: DMPO 1 or 2 mM, •OCH3 radical
Description: In this case, we monitor the formation of an oxygen centered radical generated in the presence of the spin trapping agent DMPO under Fenton conditions (hydrogen peroxide plus ferrous ions). For practical reasons (compound solubility), experiments were carried out using methanol as a solvent and therefore, the methoxy radical is monitored. A typical six-line EPR signal is recorded, corresponding to the DMPO/^•OCH3 radical, with the characteristic hyperfine coupling constants aN = 13.9 G and aH = 8.3 G. Here again, we can measure the decay of the EPR signal in the presence of the different antioxidant compounds and compare their relative capacity to reduce the signal. Typical concentration-dependent response curves are presented in Figure 3a for compounds EDA, 2 and 4. All six compounds can induce a decrease of the EPR signal but with various degrees of efficacy (Figure 3b). Here again, the results were quantified through the measure of the area of the EPR signal as a function of the compound concentration, to allow the calculation of the reaction constants for each compound. […] Proper dose-response curves were constructed and fitted to determine the reaction rate constant (kr) for each compound, as shown in Figure 3c and the kr values are collated in Table 2.
(§1) CW-EPR experiments were performed with an X-band Bruker Elexsys E500 spectrometer (Bruker BioSpin GmbH, Rheinstetten, Germany) operating at 9.86 GHz. CW spectra were recorded at room temperature with a microwave power of 5.024–10.02 mW and a modulation amplitude of 1–2 G that assumes non-saturation conditions. The antioxidant activity was monitored using DPPH (1,1-diphenyl-2-picrylhydrazyl) at a final concentration of 100 µM as free radical scavenging molecule and DMPO (5,5-dimethyl-1-pyrroline N-oxide) as spin trap agent for the spin trapping experiments. The DMPO solution was freshly distillated prior to use at a final concentration of 1 mM or 2 mM. The solution mixture was filled into a glass capillary of 50 μL, which was in turn, placed in 4 mm quartz EPR tubes prior to analysis.
(§2) The percent inhibition of DPPH was calculated according to the following equation: I (%) = ((I0 − I)/I0) ∗ 100 where I0 is the area of the EPR spectrum of DPPH (control sample), and I is the area of the EPR spectrum of DPPH with antioxidant compound. The rate constant for the reaction of antioxidant compounds with ^•OCH3 is expressed by the following equation: 1/Ra = 1/Rf + (kr [AH]/(ka [DMPO] × Rf). Rf, and Ra indicate EPR signal area (double integration of EPR signal) of ^•OCH3, DMPO/^•OCH3, respectively. ka and [DMPO] are constants, and a plot of 1/Ra vs. [AH] (concentration of antioxidant compound) gives a straight line with 1/Rf as an intercept and kr/(ka[DMPO] Rf) as the slope. In these circumstances, the rate constant for the reaction of ^•OCH3 with antioxidant compounds (kr) can be expressed by the following equation: kr = (ka [DMPO] × slope)/interception.

recombinant human PD-L1 = recombinant human PD-L1 (Homo sapiens, UniProt Q9NZQ7); assay: PD-L1 binding by microscale thermophoresis (MST); details: for Kd: affinity for PD-L1 measured by MST
[2] = Solubility in the aqueous reaction medium; format: physicochemical; details: methanol:ammonium formate buffer 5 mM pH 4.5 (40:60)
Description: To begin with, each compound was incubated with an equimolar amount of 5fU for 180 min at 37 °C in a mixture of methanol and ammonium formate buffer 5 mM, pH 4.5 (40:60, v:v). […] In each case, the reaction mixture was introduced into the mass spectrometry equipment after a dilution in methanol to achieve a final concentration of 10 pmol/µL. The formation of drug-uracil adducts was monitored and unambiguously characterized by HRMS. […] There was no solubility issue with compound. The lack of reactivity is attributable to its adamantane unit which deactivates the adjacent reactive position or produces a steric hindrance. Otherwise, the other four compounds can react easily with 5fU to generate mono- and bis-adducts, as represented in Figure 4 with compound 2. In all cases, the observed molar mass and ring double bound value (RDB) value for the different species coincide perfectly with the expected mass (Δppm < 5 ppm) and RDB value (Table 3).

[3] = DPPH free radical scavenging EPR assay; details: read-out: DPPH EC50 (concentration reducing the EPR signal by 50%); DPPH 100 μM; test compound 2–90 μM
Description: The antioxidant activity of the compounds was characterized for their free radical scavenging activities using DPPH (100 μM), chosen as a model radical. In this case, we monitor the decay in the DPPH EPR signal intensity which occurs when EPR-silent diamagnetic hydrazine counterparts are formed from DPPH. The first line DPPH signal intensity is then recorded in the presence of increasing amount of the test compound (2–90 μM). Representative dose-dependent variations of the EPR signal are shown in Figure 2a, for compounds EDA, 2 and 4. They all show the characteristic five-line EPR spectrum of DPPH, due to the hyperfine coupling with two equivalent nitrogens, and for which the intensity is proportional to the DPPH concentration, and its decay in the presence of an antioxidant. […] From these curves, the intensity of the EPR signal can be measured and its decay quantified (Figure 2b).
For each compound, the percentage of inhibition of the EPR signal was plotted as a function of the compound concentration, and the fitted curves used to determine EC50 values. The same procedure has been used to evaluate various types of antioxidant compounds [29]. […] In this test, the compounds rank in the order EDA, 2, 3 > 5 > 1 > 4.
as §1, §2

PD-L1/PD-1 interaction = PD-L1/PD-1 interaction (Homo sapiens, UniProt Q9NZQ7); assay: Disruption of the PD-L1/PD-1 interaction in cells, FRET assay; format: cell-based; details: read-out: Bioactivity (IC50): capacity to disrupt the PD-L1/PD-1 interaction in cells
Sequence of PD-L1/PD-1 interaction (Q9NZQ7 19-290): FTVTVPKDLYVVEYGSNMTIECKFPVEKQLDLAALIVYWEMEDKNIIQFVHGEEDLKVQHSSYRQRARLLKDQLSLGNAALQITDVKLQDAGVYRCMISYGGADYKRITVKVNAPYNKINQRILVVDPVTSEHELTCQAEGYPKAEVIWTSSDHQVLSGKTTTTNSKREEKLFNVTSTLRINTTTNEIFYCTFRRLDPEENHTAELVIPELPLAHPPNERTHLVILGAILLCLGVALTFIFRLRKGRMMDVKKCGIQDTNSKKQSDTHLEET

Sequence of recombinant human PD-L1 (Q9NZQ7 19-290): as above

| Compound | Kd (recombinant human PD-L1) | Solubility in the aqueous medium [2] | EC50 [3] | IC50 (PD-L1/PD-1 interaction) | Activity toward PD-L1 (recombinant human PD-L1; statement in the discussion) | IC50 (CTLL-2 cells; CTLL-2 cells) | DMPO kr (reaction rate constant) [1] | IC50 (CTLL-2 cells; Mus musculus, CTLL-2) |
| --- | --- | --- | --- | --- | --- | --- | --- | --- |
| COc1nc(OCc2cccc(-c3ccccc3)c2C)ccc1CNCCNC(C)=O [BMS-202, reference compound] |  |  |  |  |  | 53 ± 17 nM |  |  |
| CC1=NN(c2ccc(Cl)cc2Cl)C(=O)C1 [Compound 2] | 34 ± 3 nM |  | 36500 nM | 23 ± 3 nM |  |  | 1.93 10^11 M^−1 s^−1 | 53 ± 11 nM |
| CC1=NN(c2ccccn2)C(=O)C1 [Compound 1] | 77 ± 7 nM |  | 70600 nM | 92 ± 9 nM |  |  | 1.27 10^11 M^−1 s^−1 | 102 ± 8 nM |
| Nivolumab: reference listed in Table 1; the paper does not describe it further |  |  |  |  |  | 58 ± 3 nM |  |  |
| COc1ccccc1C1=NN(c2ccc(Cl)cc2Cl)C(=O)C1 [Compound 3] |  |  | 34000 nM |  |  |  | 1.88 10^11 M^−1 s^−1 | 79 ± 7 nM |

Continued, in another order:

| Kd (recombinant human PD-L1) | Solubility in the aqueous medium [2] | EC50 [3] | IC50 (PD-L1/PD-1 interaction) | Activity toward PD-L1 (recombinant human PD-L1; statement in the discussion) | Compound | IC50 (CTLL-2 cells; CTLL-2 cells) | DMPO kr (reaction rate constant) [1] | IC50 (CTLL-2 cells; Mus musculus, CTLL-2) |
| --- | --- | --- | --- | --- | --- | --- | --- | --- |
| 7 ± 3 nM | limited solubility | 97000 nM and 97600 nM | 3 ± 2 nM |  | O=C1CC(c2ccc(Cl)cc2)=NN1c1ccc(Cl)cc1Cl [Compound 4] |  | 1.04 10^11 M^−1 s^−1 | 124 ± 7 nM |
| 12 ± 2 nM |  | 59700 nM | 23 ± 6 nM |  | O=C1CC(C23CC4CC(CC(C4)C2)C3)=NN1c1ccccc1Cl [Compound 5] |  | 1.25 10^11 M^−1 s^−1 | 57 ± 9 nM |
|  |  | 35800 nM |  | totally inactive | CC1=NN(c2ccccc2)C(=O)C1 [EDA, 1-phenyl-3-methyl-5-pyrazolone, reference compound] |  | 2.59 10^11 M^−1 s^−1 |  |
